The values below come from article PMC8955938, “c-Myc Protein Level Affected by Unsymmetrical Bisacridines Influences Apoptosis and Senescence Induced in HCT116 Colorectal and H460 Lung Cancer Cells” (International Journal of Molecular Sciences, 2022).

Assay [1] relates to H460 cells. As to the kind of experiment: Mitochondrial transmembrane potential (JC-1), H460. The format is cell-based, human. To be noted: H460, IC90 doses, 120 h. On the procedure: Changes in the mitochondrial membrane potential (ΔΨm) were analyzed by flow cytometry using 5,5′,6,6′-tetrachloro-1,1′,3,3′-tetraethylbenzimidazolyl-carbocyanine iodide, JC-1 (BD Biosciences, San Jose, CA, USA) according to manufacturer’s specification. Briefly, after treatment, HCT116 and H460 cells (1 × 10^6) were trypsinized, pelleted, resuspended in media and stained with JC-1 for 15 min at 37 °C. After staining, cells were washed twice with assay buffer and analyzed by flow cytometry with FACS Accuri C6 (BD, San Jose, CA, USA). The loss of ΔΨm was monitored based on the decrease in JC-1 red fluorescence concurrent with the increase in green fluorescence.

The subject of assay [2] is HCT116 cells. In words: Annexin V/PI dual staining, HCT116. The format is cell-based, human. To be noted: HCT116, IC90 doses, 120 h. On the procedure:
Annexin V–FITC binding was performed with an Annexin-V Fluos Staining kit (BD Biosciences, San Jose, CA, USA) according to manufacturer’s protocol. Briefly, after drug treatment, HCT116 and H460 cells (1 × 10^6) were trypsinized, washed twice with ice-cold PBS, pelleted and resuspended in 100 µL of binding buffer containing Annexin-V–FITC and PI. Cells were incubated for 15 min at room temperature in the dark, then diluted with 400 µL of binding buffer and analyzed by flow cytometry with FACS Accuri C6 (BD, San Jose, CA, USA). Cells with low FITC and PI fluorescence were considered viable. Cells that presented high FITC fluorescence but low PI fluorescence were regarded as early apoptotic. Late apoptotic cells presented high FITC and PI fluorescence. Necrotic cells had low FITC fluorescence and high PI fluorescence.

Assay [3] deals with HCT116 cells. In words: Nuclear morphology (Hoechst 33342), HCT116. The format is cell-based, human. To be noted: HCT116, IC90 doses. How it is done:
(§1) Nuclear morphology was examined under a fluorescence microscope (OLYMPUS BX60, […]) after staining with Hoechst 33342. Briefly, after drug treatment, HCT116, H460, CCD 841 CoN and MRC-5 cells were spun onto microscopic slides, fixed with methanol:acetic acid (3:1) for 15 min and stained with Hoechst 33342 (1 mg/mL) for 15 min. Cells were regarded as apoptotic based on the presence of condensed, fragmented chromatin. Enlarged cells containing multiple nuclei were considered as typical of mitotic catastrophe.

The test system of assay [4] is CCD 841 CoN cells. As to the kind of experiment: MTT cell growth inhibition assay, CCD 841 CoN. The format is cell-based, human. The note with it: CCD 841 CoN normal cells, 72 h. How it is done:
To assess cell viability, the MTT assay was used. HCT116, H460, CCD 841 CoN and MRC-5 cells (20,000/well and 50,000/well for cancer and normal cells, respectively) were seeded in 24-well plates, and the following UAs were added at concentrations up to 10 μM: C-2028, C-2041, C-2045 and C-2053. Stock solutions (10 mM) were prepared in sterile water, as well as dilutions, also in water. After 72 h, 3-(4, 5-dimethylthiazol-2-yl)-2,5-diphenyltetrazolium bromide (MTT; 800 μg/well) was added for 3 h, then the formazan crystals were dissolved in DMSO, and absorbance was read at 540 nm. Each point was conducted at least 4 times, and data are expressed relative to controls. The concentration of the drug required to inhibit cells growth by 50 (IC50), 80 (IC80) and 90% (IC90) compared to untreated control cells was determined from the curves plotting survival as a function of dose.

For assay [5], the system named is HCT116 spheroids. Details: method as in PMID 34684841. To be noted: HCT116 3D spheroids; cited from earlier work.
In assay [6] the test system is H460 cells. As to the kind of experiment: Nuclear morphology (Hoechst 33342), H460. The format is cell-based, human. To be noted: H460, IC90 doses, 72 and 120 h similar level (time not specified). On the procedure: as §1
In assay [7] the test system is MYC gene expression in HCT116 cells. As to the kind of experiment: RT-PCR MYC expression in HCT116. The format is cell-based, human. To be noted: HCT116, IC90 doses, 120 h, 2^-ΔΔCt. How it is done: HCT116, H460, CCD 841 CoN and MRC-5 cells after treatment with UAs were collected, washed twice with ice-cold PBS and resuspended in […] of PBS. mRNA was isolated using High Pure RNA Isolation Kit according to the manufacturer’s instructions (Roche, Basel, Switzerland). Briefly, cells were lysed in lysis-binding buffer and transferred to a filter tube. Contaminating DNA was removed by 15 min incubation of the filter tube with DNase I solution. The filter tube was washed once with buffer I and twice with buffer II, and after centrifugation, total RNA was eluted using the elution buffer. RNA concentration was determined by NanoDrop One (Thermo Scientific); 1 µg of RNA was reverse transcribed using Transcriptor First Strand cDNA Synthesis Kit according to the manufacturer’s instructions (Roche) in 20 µL of reaction containing 1 µg of RNA, […] anchored-oligo(dT)18Primer, 8 mM MgCl2, 20 U of Protector RNase Inhibitor, deoxynucleotide mix (1 mM each) and 22 U of Transcriptor Reverse Transcriptase. The reverse transcription reaction was carried out for 30 min at 55 °C and stopped by heating to 85 °C for 5 min and placing on ice. The cDNA solution was stored at −20 °C until use. […] The relative expression level of MYC and KRAS was quantified using comparative method […]. The results were obtained from three independent experiments, each of which was analyzed at least twice.

Molecules are shown by their SMILES.

Turning to `Cc1ccc([N+](=O)[O-])c2c(NCCCN(C)CCCNc3ccc4ncn5c6ccccc6c(=O)c3c45)c3ccccc3nc12` [Compound C-2053], the “cells with decreased mitochondrial transmembrane potential (ΔΨm)” value in assay [1] stood at 67.8%. Also, the “annexin V positive cells (early and late apoptotic)” value (shortened to “annexin V positive cells”) in assay [2] is given as 18.4%. Besides, the “apoptotic cells (nuclear morphology)” value in assay [3] (72 and 120 h) is reported as “up to 6.4%”; in assay [6], 41.6%. Besides, in assay [4] (Homo sapiens), the 90% effect level (IC90) was put at 4100 ± 470 nM. For the same molecule, the 50% inhibitory concentration (IC50) in assay [4] (Homo sapiens, CCD-841CoN) was found to be 240 ± 40 nM. In assay [5], the “inhibition of spheroids growth” value is reported as “to the greatest extent”.
On to `CN(CCCNc1c2ccccc2nc2cccc([N+](=O)[O-])c12)CCCNc1ccc2ncn3c4ccccc4c(=O)c1c23` [Compound C-2028], for which, in assay [1], the “cells with decreased mitochondrial transmembrane potential (ΔΨm)” value is 44.3%. Further, the “annexin V positive cells” value in assay [2] stood at 26.1%. The half-maximal inhibitory concentration (IC50) in assay [4] was 25 ± 7 nM; in assay [4] (Homo sapiens, CCD-841CoN) it was around 20 nM. In assay [4] (Homo sapiens), this molecule came in with an IC90 of 3690 ± 1080 nM. Besides, the “apoptotic cells (nuclear morphology)” value in assay [6] is reported as 24.8%.
Regarding `Cc1ccc([N+](=O)[O-])c2c(NCCCN(C)CCCNc3ccc4ncn5c6ccc(O)cc6c(=O)c3c45)c3ccccc3nc12` [Compound C-2045], in assay [1], the “cells with decreased mitochondrial transmembrane potential (ΔΨm)” value is 62.5%. The “annexin V positive cells” value in assay [2] was around 27.8%. The “apoptotic cells (nuclear morphology)” value in assay [3] (72 h) is listed as 20.6%; in assay [6], 41.8%. The 50% inhibitory concentration (IC50) in assay [4] was 338 ± 27 nM; in assay [4] (Homo sapiens, CCD-841CoN) it was around 300 nM. This molecule returned an IC90 in assay [4] (Homo sapiens) of 5340 ± 1850 nM. Also, the “MYC expression, fold increase” value in assay [7] was determined as 5.3 fold.
With `O=c1c2ccccc2n2cnc3ccc(NCCCN4CCN(CCCNc5c6ccccc6nc6cccc([N+](=O)[O-])c56)CC4)c1c32` [Compound C-2041], the “cells with decreased mitochondrial transmembrane potential (ΔΨm)” value in assay [1] worked out at 46.8%. In addition, the “annexin V positive cells” value in assay [2] is on record as “approximately 43%”. For the same molecule, in assay [3] (72 h), the “apoptotic cells (nuclear morphology)” value is 29.4%. In addition, the 90% effect concentration (IC90) in assay [4] (Homo sapiens) stood at 5120 ± 1090 nM. In assay [4] (Homo sapiens, CCD-841CoN), the concentration for half-maximal inhibition (IC50) came to 36 ± 5 nM. Also, the “inhibition of spheroids growth” value in assay [5] is recorded as “to the least extent”. The “MYC expression, fold increase” value in assay [7] was 3.3 fold.

As a reminder, the IC90 is the concentration needed for an effect of 90%. A lower IC90 goes with greater potency. By IC50 is commonly meant the point on the concentration scale where inhibition reaches its midpoint.
